Structures can show the parent of a compound that is named as a salt.
What was measured:
[1] = system: SK-Mel-239 vemurafenib-resistant clone cells; test: SK-Mel-239 vemurafenib-resistant tumors in NOD Scid gamma mice; assay type: in vivo, human; settings: GW3965 diet 100 mg/kg
[2] = system: MeWo human melanoma cells; test: Tumor histochemistry (MECA-32, Ki-67, cleaved caspase-3) of MeWo tumors; assay type: in vivo; settings: GW3965 diet 20 mg/kg, 35 days
Source text: Animals were intracardially perfused with PBS followed by 4% paraformaldehyde (PFA). Fixed lungs were embedded in paraffin and sectioned into 5-jam-thick increments. Macroscopic lung metastatic nodules were visualized by H&E staining. For analysis of tumor endothelial cell content, proliferation, and apoptosis, primary tumor paraffin-embedded sections were stained with antibodies against MECA-32 (Developmental Studies Hybridoma Bank, University of Iowa), KI-67 (ab15580, Abcam), and cleaved caspase-3 (9661, Cell Signaling), respectively.
Tumors were excised from mice and fixed in 4% paraformaldehyde at 4° C. for 48 hours. Then, tumors were paraffin-embedded and sectioned into 5-μm-thick increments. For endothelial cell content analysis in tumors, tumor sections were stained with a primary antibody against the mouse endothelial cell marker MECA-32 (Developmental Studies Hybridoma Bank, The University of Iowa, IA) and counterstained with DAPI nuclear stain. To determine tumor cell proliferation and apoptosis, tumor sections were stained with antibodies against the proliferative marker Ki-67 (Abcam, ab15580, Cambridge, Mass.) and the apoptotic marker cleaved caspase-3 (9661, Cell Signaling, Danvers, Mass.), respectively. Various Alexa Flour dye-conjugated secondary antibodies were used to detect primary antibodies. […] Endothelial cell content density and tumor proliferation rate were quantified by calculating the average percentage of MECA-32 or Ki-67 positively-staining area out of the total tumor area. Tumor apoptosis was measured by counting the number of cleaved caspase-3 expressing cells per given tumor area.

[3] = system: SK-Mel-2 human melanoma cells; test: Subcutaneous SK-Mel-2 tumor growth in immunocompromised mice; assay type: in vivo; settings: oral, GW3965-supplemented diet
[4] = system: RCC human renal cancer cells, PANC1 human pancreatic cancer cells, H460 human lung cancer cells; test: Matrigel invasion of renal, pancreatic and lung cancer cells treated with GW3965; assay type: cell-based; settings: 1 μM for 72 hours prior to the assay
Procedure: Various cell lines (5×10^4 RCC human renal cancer cells, 5×10^4 PANC1 human pancreatic cancer cells, and 5×10^4 H460 human lung cancer cells) were treated with DMSO or GW3965 at 1 μM for 56 hours. The cells were serum starved for 16 hours in 0.2% FBS media in the presence of DMSO or GW3965. Following serum starvation, the cells were subjected to the trans-well invasion assay using a matrigel invasion chamber system (354480, BD Biosciences). Invasion chambers were pre-equilibrated prior to the assay by adding 0.5 mL of starvation media to the top and bottom wells. Meanwhile, cancer cells were trypsinized and viable cells were counted using trypan blue. Cancer cells were then resuspended at a concentration of 1×10^5 cells/1 mL starvation media, and 0.5 mL of cell suspension, containing 5×10^4 cells, was seeded into each trans-well. The invasion assay was allowed to proceed for 24 hours at 37° C. […] Following fixation, the inserts were washed in PBS and then cut out and mounted onto slides using VectaShield mounting medium containing DAPI nuclear stain (H-1000, Vector Laboratories). The basal side of each insert was imaged using an inverted fluorescence microscope (Zeiss Axiovert 40 CFL) at 5× magnification, and the number of DAPI-positive cells was quantified using ImageJ.

[5] = system: MeWo brain-metastatic derivatives; test: Brain metastasis assay, intracardiac injection into athymic nude mice; assay type: in vivo, human; settings: oral, GW3965 diet 100 mg/kg from day 0
Procedure: Melanoma cells used for in vivo metastasis assays were transduced with a stably expressed retroviral construct encoding a luciferase reporter gene (Ponomarev et al., 2004), allowing us to monitor the in vivo progression of melanoma cells by bioluminescence imaging. The following numbers of melanoma cells, resuspended in 100 μL of PBS, were injected intravenously via the tail-vein: 4×10^4 MeWo cells, 2.5×10^5 HT-144 cells, 2×10^5 SK-Mel-334.2 cells, 5×10^4B16F10 cells, and 1×10^5 YUMM cells. The MeWo, HT-144, and SK-Mel-334.2 cells were injected into 6-8 week-old sex-matched NOD scid mice, while the B16F10 and YUMM cells were injected into 6-8 week-old sex-matched C57BL/6 mice. In all experiments assessing at the effects of GW3965 on metastasis formation, mice were pre-treated on a control diet or a GW3965-supplemented diet (20 mg/kg) for 10 days. To assess the effect of GW3965 treatment on brain metastasis, 1×10^5 MeWo brain-metastatic derivatives were injected intracardially into athymic nude mice. Immediately following injection, mice were randomly assigned to a control diet or GW3965-supplemented diet (100 mg/kg). […]

[6] = system: breast cancer, renal cell cancer, and pancreatic cancer cell lines; test: Matrigel invasion of breast, renal cell and pancreatic cancer cell lines with recombinant ApoE; assay type: cell-based, human; settings: recombinant ApoE3 100 μg/mL vs BSA
Procedure: The ability of cancer cells to invade through matrigel in vitro was tested by using a trans-well matrigel invasion chamber system (354480, BD Biosciences). Various cancer cell lines were serum-starved overnight in media containing 0.2% FBS. The following day, invasion chambers were pre-equilibrated prior to the assay by adding 0.5 mL of starvation media to the top and bottom wells. Meanwhile, cancer cells were trypsinized and viable cells were counted using the trypan blue dead cell exclusion dye. Cancer cells were then resuspended at a concentration of 1×10^5 cells/1 mL starvation media, and 0.5 mL of cell suspension, containing 5×10^4 cells, was seeded into each trans-well. To determine the effect of recombinant ApoE on cancer cell invasion, human recombinant ApoE3 (4696, Biovision) or BSA were added to each trans-well at 100 μg/mL at the start of the assay. The invasion assay was allowed to proceed for 24 hours at 37° C. […] Following fixation, the inserts were washed in PBS and then cut out and mounted onto slides using VectaShield mounting medium containing DAPI nuclear stain (H-1000, Vector Laboratories). The basal side of each insert was imaged using an inverted fluorescence microscope (Zeiss Axiovert 40 CFL) at 5× magnification, and the number of DAPI-positive cells was quantified using ImageJ.

Molecule	suppression of tumor growth [1] [%]	survival of mice bearing vemurafenib-resistant melanoma burden [1]	decrease in the number of actively proliferating tumor cells ([2]; Ki-67) [%]	reduction in the endothelial cell content of tumors ([2]; MECA-32)	number of apoptotic cells ([2]; cleaved caspase-3)	tumor growth inhibition [3] [%]	tumor cell invasion [4]	systemic dissemination and brain colonization [5]	tumor cell invasion [6]
O=C(O)Cc1cccc(OCCCN(Cc2cccc(C(F)(F)F)c2Cl)CC(c2ccccc2)c2ccccc2)c1 [GW3965 2, 3-[3-[N-(2-Chloro-3-trifluoromethylbenzyl)-(2,2-diphenylethyl)amino]propyloxy] phenylacetic acid hydrochloride]	72	significantly prolonged	23	roughly 2 fold	without a change	49	inhibition	inhibited	
recombinant human ApoE: recombinant human ApoE3 (4696, BioVision)									inhibited

Reference: patent US10945978B2, “Treatment and diagnosis of melanoma” (The Rockefeller University, priority 2012, dated 2021)
